SMILES strings stand for the structures.

One experiment addresses T1, BCL6 (Homo sapiens, UniProt P41182).
T1 construct: HiBiT-tag knocked into endogenous BCL6 locus using CRISPR; endogenous in cells; host or cells: DHL-4_BCL6_HiBiT cells (CRISPR knock-in)
The experiment in a line: BCL6_HiBiT degradation assay (2 h). The experiment is classed as cell-based. The following applies: DHL-4_BCL6_HiBiT cells. The procedure:
A DHL-4 cell line with HiBiT-tag knocked into endogenous BCL6 locus using CRISPR was generated. The DHL-4_BCL6_HiBiT cells were dispensed into 384-well plates (Corning no. 3570) that were pre-spotted with compounds. Compounds were dispensed by an acoustic dispenser (ATS acoustic transfer system from EDC Biosystems) into a 384-well plate in a 10-point dose response curve using 3-fold dilutions starting at 1-10 μM and going down to […]. 25 μL of media (RPMI-1640+10% heat inactivated FBS+1×Pen/Strep) containing 2500 of DHL-4 was dispensed per well. Assay plates were incubated at 37° C. with 5% CO2 for 2 hours. After incubation, 25 μL of the Nano-Glo HiBiT lytic detection working solution (Promega, catalogue no. N3040, Madison, WI) was added to each well and incubated at room temperature for 15-30 min, protected from light. After 30 min, luminescence was read on an Envision or PHERAstar luminescence reader. To determine the EC50 value (the half-maximum effective concentration) and the level of the gradation (Yconstant) of a BCL6 degrader, luminescent signal normalized by DMSO control (Y) and compound concentration (x) was fitted using a four-parameter dose-response model (Y=(A+((B−A)/1+((C/x)^D) in Dotmatics. Fitted value C is the degradation EC50 and the minimum value A is the Y constant.
The degradation of BCL6 at 2 h in DHL-4 results are shown in Table 5, where EC50 is the half maximal effect and Ycon is the % remaining maximal effect.
Background: The HiBiT peptide binds its large partner to form an active luciferase.
On to `CN1C(=O)Cc2cc(Nc3nc(N4CCC(Nc5ccc6c(C7CCC(=O)NC7=O)nn(C)c6c5)CC4)ncc3Cl)ccc21` (single isomer, unassigned) [Example 53], for which the “YCon (% remaining maximal effect)” value is “^^ (20-60%)”.

The experiment is the same for the next values; noted with them: DHL-4_BCL6_HiBiT cells, read-out: YCon (% remaining maximal effect).
As for `C[C@@H]1CN(c2ncc(Cl)c(Nc3ccc4c(c3)CC(=O)N4CC(C)(F)F)n2)CC[C@H]1Nc1ccc2c([C@@H]3CCC(=O)NC3=O)nn(C)c2c1` (single isomer, unassigned) [Example 112], the Percent BCL6 remaining at maximal degradation (Ycon) was < 20%. Take `C[C@@H]1CN(c2ncc(Cl)c(Nc3ccc4c(c3)N(C)C(=O)C4)n2)CC[C@H]1Nc1ccc2c(C3CCC(=O)NC3=O)nn(C)c2c1` (stereo partly drawn) [Example 61, 3-(6-(((3R,4R)-1-(5-chloro-4-((1-methyl-2-oxoindolin-6-yl)amino)pyrimidin-2-yl)-3-methylpiperidin-4-yl)amino)-1-methyl-1H-indazol-3-yl)piperidine-2,6-dione]: the Percent BCL6 remaining at maximal degradation (Ycon) is < 20%. Take `COCCN1C(=O)Cc2cc(Nc3nc(N4CC[C@@H](Nc5ccc6c([C@@H]7CCC(=O)NC7=O)nn(C)c6c5)[C@H](C)C4)ncc3Cl)ccc21` (single isomer, unassigned) [Example 77]: the Percent BCL6 remaining at maximal degradation (Ycon) was < 20%. With `COCCN1C(=O)Cc2cc(Nc3nc(N4CC[C@@H](Nc5ccc6c(C7CCC(=O)NC7=O)nn(C)c6c5)[C@H](C)C4)ncc3Cl)ccc21` (stereo partly drawn) [Example 75, 3-(6-(((3R,4R)-1-(5-chloro-4-((1-(2-methoxyethyl)-2-oxoindolin-5-yl)amino)pyrimidin-2-yl)-3-methylpiperidin-4-yl)amino)-1-methyl-1H-indazol-3-yl)piperidine-2,6-dione], the Percent BCL6 remaining at maximal degradation (Ycon) is < 20%. Still for that read-out and setting: next, `CC1CN(c2ccc3c(C4CCC(=O)NC4=O)nn(C)c3c2)C(=O)CN1c1ncc(Cl)c(Nc2ccc3c(c2)CC(=O)N3C)n1` (stereo not shown) [Example 39, 3-(6-(4-(5-chloro-4-((1-methyl-2-oxoindolin-5-yl)amino)pyrimidin-2-yl)-5-methyl-2-oxopiperazin-1-yl)-1-methyl-1H-indazol-3-yl)piperidine-2,6-dione]: > 60%; `C[C@@H]1CN(c2ccc3c(C4CCC(=O)NC4=O)nn(C)c3c2)C[C@@H](C)N1c1ncc(Cl)c(Nc2ccc3c(c2)CC(=O)N3C)n1` (stereo partly drawn) [Example 28, 3-(6-((3R,5R)-4-(5-chloro-4-((1-methyl-2-oxoindolin-5-yl)amino)pyrimidin-2-yl)-3,5-dimethylpiperazin-1-yl)-1-methyl-1H-indazol-3-yl)piperidine-2,6-dione]: > 60%. For the compound `C[C@@H]1CN(c2ncc(Cl)c(Nc3ccc4c(c3)CC(=O)N4C)n2)C[C@@H](C)N1c1ccc2c([C@@H]3CCC(=O)NC3=O)nn(C)c2c1` (single isomer, unassigned) [Example 80], the Percent BCL6 remaining at maximal degradation (Ycon) is > 60%.

Take `C[C@@H]1C(=O)N(c2ccc3c(C4CCC(=O)NC4=O)nn(C)c3c2)CC[C@H]1N(C)c1ncc(Cl)c(Nc2ccc3c(c2)CC(=O)N3C)n1` (single isomer, unassigned) [Example 131]: the Percent BCL6 remaining at maximal degradation (Ycon) is < 20%.

For `CN1C(=O)Cc2cc(Nc3nc(N4CC[C@@H](Nc5ccc6c(C7CCC(=O)NC7=O)nn(C)c6c5)[C@H](F)C4)ncc3Cl)ccc21` (stereo partly drawn) [Example 45, 3-(6-(((3R,4R)-1-(5-chloro-4-((1-methyl-2-oxoindolin-5-yl)amino)pyrimidin-2-yl)-3-fluoropiperidin-4-yl)amino)-1-methyl-1H-indazol-3-yl)piperidine-2,6-dione], the Percent BCL6 remaining at maximal degradation (Ycon) lay in the range of 20 to 60%.

Turning to `C[C@H]1CN(c2ccc3c(C4CCC(=O)NC4=O)nn(C)c3c2)C(=O)C[C@H]1N(C)c1ncc(Cl)c(Nc2ccc3c(c2)CC(=O)N3C)n1` (stereo partly drawn) [Example 149, 3-(6-((4R,5S)-4-((5-chloro-4-((1-methyl-2-oxoindolin-5-yl)amino)pyrimidin-2-yl)(methyl)amino)-5-methyl-2-oxopiperidin-1-yl)-1-methyl-1H-indazol-3-yl)piperidine-2,6-dione], the Percent BCL6 remaining at maximal degradation (Ycon) fell in the range of 20 to 60%.

Turning to `CN1C(=O)Cc2cc(Nc3nc(N4CC[C@@H](Nc5ccc6c(C7CCC(=O)NC7=O)nn(C)c6c5)C(F)(F)C4)ncc3Cl)ccc21` (stereo partly drawn) [Example 66, 3-(6-(((R)-1-(5-chloro-4-((1-methyl-2-oxoindolin-5-yl)amino)pyrimidin-2-yl)-3,3-difluoropiperidin-4-yl)amino)-1-methyl-1H-indazol-3-yl)piperidine-2,6-dione], the Percent BCL6 remaining at maximal degradation (Ycon) is > 60%. For the compound `Cn1nc(C2CCC(=O)NC2=O)c2ccc(C3CCN(c4ncc(Cl)c(Nc5ccc6c(c5)CC(=O)N6)n4)CC3)cc21` (stereo not shown) [Example 124, 3-[6-[1-[5-chloro-4-[(2-oxoindolin-5-yl)amino]pyrimidin-2-yl]-4-piperidyl]-1-methyl-indazol-3-yl]piperidine-2,6-dione], the Percent BCL6 remaining at maximal degradation (Ycon) is > 60%. The same measure, in the same setting: under `CN1C(=O)Cc2cc(Nc3nc(N4CC[C@H](Nc5ccc6c(C7CCC(=O)NC7=O)nn(C)c6c5)[C@H](F)C4)ncc3Cl)ccc21` (stereo partly drawn) [Example 43, 3-(6-(((3R,4S)-1-(5-Chloro-4-((1-methyl-2-oxoindolin-5-yl)amino)pyrimidin-2-yl)-3-fluoropiperidin-4-yl)amino)-1-methyl-1H-indazol-3-yl)piperidine-2,6-dione] stands > 60%. Same read-out and setting: under `C[C@H]1C[C@H](Nc2ccc3c([C@@H]4CCC(=O)NC4=O)nn(C)c3c2)CCN1c1ncc(Cl)c(Nc2ccc3c(c2)CC(=O)N3C)n1` (single isomer, unassigned) [Example 83] stands 20 to 60%. On to `CN1C(=O)Cc2cc(Nc3nc(N4CCN(c5ccc6c(C7CCC(=O)NC7=O)nn(C)c6c5)CC4)ncc3Cl)ccc21` (stereo not shown) [Example 35, 3-[6-[4-[5-chloro-4-[(1-methyl-2-oxo-indolin-5-yl)amino]pyrimidin-2-yl]piperazin-1-yl]-1-methyl-indazol-3-yl]piperidine-2,6-dione], for which the Percent BCL6 remaining at maximal degradation (Ycon) is > 60%.

On to `C[C@@H]1CN(c2ncc(Cl)c(Nc3ccc4c(c3)CC(=O)N4C)n2)C[C@H](C)N1c1ccc2c(C3CCC(=O)NC3=O)nn(C)c2c1` (stereo partly drawn) [Example 26, 3-(6-((2S,6R)-4-(5-chloro-4-((1-methyl-2-oxoindolin-5-yl)amino)pyrimidin-2-yl)-2,6-dimethylpiperazin-1-yl)-1-methyl-1H-indazol-3-yl)piperidine-2,6-dione], for which the Percent BCL6 remaining at maximal degradation (Ycon) is > 60%. As for `CN(c1ncc(Cl)c(Nc2ccc3c(c2)N(CCC(C)(C)O)C(=O)C3)n1)C1CCN(c2ccc3c(C4CCC(=O)NC4=O)nn(C)c3c2)CC1` (stereo not shown) [Example 11, 3-(6-(4-((5-chloro-4-((1-(3-hydroxy-3-methylbutyl)-2-oxoindolin-6-yl)amino)pyrimidin-2-yl)(methyl)amino)piperidin-1-yl)-1-methyl-1H-indazol-3-yl)piperidine-2,6-dione], the Percent BCL6 remaining at maximal degradation (Ycon) was > 60%. Consider `C[C@@H]1CN(c2ncc(Cl)c(Nc3ccc4c(c3F)CC(=O)N4C)n2)CC[C@H]1Nc1ccc2c([C@H]3CCC(=O)NC3=O)nn(C)c2c1` (single isomer, unassigned) [Example 99], for which the Percent BCL6 remaining at maximal degradation (Ycon) is < 20%.

The values above are taken from patent US12404239B2, “Modulators of BCL6 as ligand directed degraders” (Celgene Corporation, priority 2022, dated 2025).
